According to US10787425B2, “Thiazolidinedione derivative and use thereof” (INDUSTRY-ACADEMIC COOPERATION FOUNDATION CHOSUN UNIVERSITY, priority 2016, dated 2020):

Assays:
15-PGDH = 15-PGDH (Homo sapiens (Human), UniProt P15428); assay: 15-PGDH inhibitory activity (NADH at 340 nm); assay type: biochemical; conditions: concentration inhibiting 50% of 15-PGDH activity; purified 15-PGDH, 21 μM PGE2, 0.25 mM NAD+
Experimental: The 15-PGDH cDNA plasmid containing the BamHI of the pGEX-2T expression vector and EcoRI restriction enzyme sites was transfected into E. coli BL-21 LysS by using conventional methods used in the art. Then, the transfected cells were cultured in an LB medium (500 ml) containing 50 μg/ml of ampicillin at a temperature of 37° C. and at a rate of 220 rpm until the OD600 reached 0.6. Then, isopropyl beta-D-thiogalactoxide (1 mM) was added and the cells were further cultured at the temperature of 25° C. for 12 hours. The cells were then centrifuged at the gravity of 4,000 g for 30 minutes at a temperature of 4° C. to collect a cell pellet. The cell pellet was dissolved in 20 ml of cell lysis buffer (containing 1×PBS buffer (pH 7.4): 1 mM EDTA and 0.1 mM DTT) and sonicated at a temperature of 4° C. for 14×10 s. The digested cells were centrifuged at the gravity of 4,000 g for 20 minutes at a temperature of 4° C. The supernatant was then slowly loaded onto a glutathione-sepharose 4B column equilibrated at a temperature of 4° C. with cell lysis buffer [containing 1×PBS buffer (pH 7.4), 1 mM EDTA, and 0.1 mM DTT]. Washing was performed thereon by using a dissolution buffer until the OD280 reached 0.005 or less. Then, 15-PGDH was eluted from the glutathione-sepharose 4B column at room temperature for 5 minutes by using an elution buffer [containing 50 mM Tris-HCl (pH 8.0), 10 mM reduced glutathione, 1 mM EDTA, and 0.1 mM DTT). The concentration of the purified enzyme was measured, and the purification level thereof was confirmed by SDS-PAGE.
That is, the cells were treated with a solution including 50 mM Tris-HCl (pH 7.5), 0.1 mM DTT, 0.25 mM (NAD+), 10 μg of purified 15-PGDH enzyme, 21 μM PGE2. and various concentrations (0.0001 μM to 64 μM) of the derivative compound according to the present disclosure. In this case, the total volume of the solution was 2 ml. Then, the absorbance of the reaction mixture was recorded at the wavelength of 340 nm. To measure the activity of the derivative compounds according to the present disclosure, which is an inhibitor of 15-PGDH, the average value of NADH absorbance at 340 nm at various concentrations was obtained from a standard curve.

A549 cells = assay: Measurement of PGE2 concentration in A549 cell medium (ELISA); assay type: cell-based, human; conditions: for Increment %: PGE2 concentration versus PBS control, 5 μM, 12 hours; for PGE2 concentration: inhibitor 5 μM, medium collected after 12 hours, ELISA
Experimental: A549 cells were subcultured in RPMI 1640 medium (containing+8% fetal bovine serum (FBS) and antibiotic-antimycotic (AA)) for one week, and then, inoculated in a 6-well plate at 2.5×10^5 cells/mL (5×10^5 cells/well) and cultured for 24 hours in a 5% CO2 incubator at a temperature of 37° C. A549 cells are adenocarcinomic human alveolar basal epithelial cells which are derived from lung tissues. When cells were grown to about 80% confluence, a 15-PGDH inhibitor in 1×PBS buffer was injected at a concentration of 5 μM. To compare the results, the same amount of 1×PBS buffer was injected into a negative control, and, the treated cells were cultured in 5% CO2 incubator. After 12 hours, the medium was collected and the collected medium was assayed to measure PGE2 concentration by using an ELISA Kit (Abcam) according to the manufacturer's instructions. The concentration may be expressed as an exact value by plotting the calibration curve by using the absorbance value after diluting the standard in the medium by concentration.

15-PGDH, sequence (P15428 whole entry): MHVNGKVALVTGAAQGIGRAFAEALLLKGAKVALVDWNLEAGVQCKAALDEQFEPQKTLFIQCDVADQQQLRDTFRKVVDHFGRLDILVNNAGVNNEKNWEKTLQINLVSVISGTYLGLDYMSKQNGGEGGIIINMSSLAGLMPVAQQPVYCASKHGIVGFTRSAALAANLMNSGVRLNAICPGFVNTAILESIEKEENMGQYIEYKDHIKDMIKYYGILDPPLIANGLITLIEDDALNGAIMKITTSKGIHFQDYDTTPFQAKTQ

`O=C1NC(=O)/C(=C/c2ccc(OC(=O)C3CCC3)c(Cl)c2)S1` [Compound 2, (Z)-2-chloro-4-((2,4-dioxothiazolidin-5-ylidene)methyl)phenyl cyclobutanecarboxylate] gave an IC50 (15-PGDH) of 0.782 µM, an Increment % (A549 cells) of 9.96% and a PGE2 concentration (A549 cells) of 301.0364 pg/mL.
`O=C1NC(=O)/C(=C/c2ccc(OC(=O)C3CCCC3)c(Cl)c2)S1` [Compound 3, (Z)-2-chloro-4-((2,4-dioxothiazolidin-5-ylidene)methyl)phenyl cyclopentanecarboxylate] gave an IC50 (15-PGDH) of 0.196 µM, an Increment % (A549 cells) of −30.1% and a PGE2 concentration (A549 cells) of 191.3645 pg/mL.
For `O=C(CC1CCCC1)Oc1ccc(/C=C2\SC(=O)NC2=O)cc1Cl` [Compound 4, (Z)-2-chloro-4-((2,4-dioxothiazolidin-5-ylidene)methyl)phenyl 2-cyclopentylacetate], the IC50 (15-PGDH) was 0.0783 µM, the Increment % (A549 cells) was 103.32% and the PGE2 concentration (A549 cells) was 556.6271 pg/mL.
With `O=C(CCC1CCCC1)Oc1ccc(/C=C2\SC(=O)NC2=O)cc1Cl` [Compound 5, (Z)-2-chloro-4-((2,4-dioxothiazolidin-5-ylidene)methyl)phenyl 3-cyclopentylpropanoate] the IC50 (15-PGDH) was 0.0305 µM, the Increment % (A549 cells) was 83.07% and the PGE2 concentration (A549 cells) was 501.1889 pg/mL.
Molecule `O=C1NC(=O)/C(=C/c2ccc(OC(=O)C3CCCCC3)c(Cl)c2)S1` [Compound 6, (Z)-2-chloro-4-((2,4-dioxothiazolidin-5-ylidene)methyl)phenyl cyclohexanecarboxylate] has an IC50 (15-PGDH) of 0.137 µM, an Increment % (A549 cells) of 27.71% and a PGE2 concentration (A549 cells) of 349.6304 pg/mL.
`O=C(CC1CCCCC1)Oc1ccc(/C=C2\SC(=O)NC2=O)cc1Cl` [Compound 7, (Z)-2-chloro-4-((2,4-dioxothiazolidin-5-ylidene)methyl)phenyl 2-cyclohexylacetate] gave an IC50 (15-PGDH) of 0.0238 µM, an Increment % (A549 cells) of 20.36% and a PGE2 concentration (A549 cells) of 329.5084 pg/mL.
`O=C(CCC1CCCCC1)Oc1ccc(/C=C2\SC(=O)NC2=O)cc1Cl` [Compound 8, (Z)-2-chloro-4-((2,4-dioxothiazolidin-5-ylidene)methyl)phenyl 3-cyclohexylpropanoate] was tested, and the Increment % (A549 cells) was 221.32% and the PGE2 concentration (A549 cells) was 879.6746 pg/mL.
For `O=C(CCCC1CCCCC1)Oc1ccc(/C=C2\SC(=O)NC2=O)cc1Cl` [Compound 9, (Z)-2-chloro-4-((2,4-dioxothiazolidin-5-ylidene)methyl)phenyl 4-cyclohexylbutanoate], the IC50 (15-PGDH) was 0.0202 µM, the Increment % (A549 cells) was 189.34% and the PGE2 concentration (A549 cells) was 792.1232 pg/mL.
In the case of `O=C(CCCCC1CCCCC1)Oc1ccc(/C=C2\SC(=O)NC2=O)cc1Cl` [Compound 10, (Z)-2-chloro-4-((2,4-dioxothiazolidin-5-ylidene)methyl)phenyl 5-cyclohexylpentanoate], the IC50 (15-PGDH) is reported as 0.0317 µM, the Increment % (A549 cells) is reported as 89.99% and the PGE2 concentration (A549 cells) is reported as 520.1337 pg/mL.
In the case of `O=C(O)c1ccccc1.O=C1NC(=O)/C(=C/c2ccc(OC(=O)c3ccccc3)c(Cl)c2)S1` [Compound 11, (Z)-2-chloro-4-((2,4-dioxothiazolidin-5-ylidene)methyl)phenyl benzoate], the IC50 (15-PGDH) is reported as 0.0319 µM, the Increment % (A549 cells) is reported as −78.32% and the PGE2 concentration (A549 cells) is reported as 25.95 pg/mL.
`O=C(Cc1ccccc1)Oc1ccc(/C=C2\SC(=O)NC2=O)cc1Cl` [Compound 12, (Z)-2-chloro-4-((2,4-dioxothiazolidin-5-ylidene)methyl)phenyl 2-phenylacetate] was tested, and the IC50 (15-PGDH) was 0.0635 µM, the Increment % (A549 cells) was −34.89% and the PGE2 concentration (A549 cells) was 77.92 pg/mL.
`O=C(CCc1ccccc1)Oc1ccc(/C=C2\SC(=O)NC2=O)cc1Cl` [Compound 13, (Z)-2-chloro-4-((2,4-dioxothiazolidin-5-ylidene)methyl)phenyl 3-phenylpropanoate] showed an IC50 (15-PGDH) of 0.0418 µM, an Increment % (A549 cells) of 16.39% and a PGE2 concentration (A549 cells) of 139.2902 pg/mL.
`O=C(CCCCc1ccccc1)Oc1ccc(/C=C2\SC(=O)NC2=O)cc1Cl` [Compound 15, (Z)-2-chloro-4-((2,4-dioxothiazolidin-5-ylidene)methyl)phenyl 5-phenylpentanoate] gave an IC50 (15-PGDH) of 0.044 µM, an Increment % (A549 cells) of 84.11% and a PGE2 concentration (A549 cells) of 220.3344 pg/mL.
`O=C1NC(=O)/C(=C/c2ccc(OC(=O)C3CC3)c(Br)c2)S1` [Compound 16, (Z)-2-bromo-4-((2,4-dioxothiazolidin-5-ylidene)methyl)phenyl cyclopropanecarboxylate] gave an IC50 (15-PGDH) of 0.22 µM, an Increment % (A549 cells) of 12.12% and a PGE2 concentration (A549 cells) of 283.7043 pg/mL.
`O=C(CCC1CCCCC1)Oc1ccc(/C=C2\SC(=O)NC2=O)cc1Br` [Compound 23, (Z)-2-bromo-4-((2,4-dioxothiazolidin-5-ylidene)methyl)phenyl 3-cyclohexylpropanoate] was tested, and the Increment % (A549 cells) was 311.02% and the PGE2 concentration (A549 cells) was 1040.03 pg/mL.
For `COc1cc(/C=C2\SC(=O)NC2=O)ccc1OC(=O)CCC1CCCCC1` [Compound 38, (Z)-4-((2,4-dioxothiazolidin-5-ylidene)methyl)-2-methoxyphenyl 3-cyclohexylpropanoate], the Increment % (A549 cells) was 323.99% and the PGE2 concentration (A549 cells) was 859.6813 pg/mL.
With `CCOc1cc(/C=C2\SC(=O)NC2=O)ccc1OC(=O)CCC1CCCCC1` [Compound 53, (Z)-4-((2,4-dioxothiazolidin-5-ylidene)methyl)-2-ethoxyphenyl 3-cyclohexylpropanoate] the Increment % (A549 cells) was 189.34% and the PGE2 concentration (A549 cells) was 792.73 pg/mL.
`O=C1NC(=O)/C(=C/c2ccc(OC(=O)C3CCC3)cc2)S1` [Compound 62, (Z)-4-((2,4-dioxothiazolidin-5-ylidene)methyl)phenyl cyclobutanecartboxylate] showed an Increment % (A549 cells) of 12.13% and a PGE2 concentration (A549 cells) of 178.4361 pg/mL.
With `O=C(CCC1CCCCC1)Oc1ccc(/C=C2\SC(=O)NC2=O)cc1` [Compound 68, (Z)-4-((2,4-dioxothiazolidin-5-ylidene)methyl)phenyl 3-cyclohexylpropanoate] the Increment % (A549 cells) was 97.45% and the PGE2 concentration (A549 cells) was 255.0535 pg/mL.
`O=C1NC(=O)/C(=C/c2ccc(OC(=O)c3ccccc3)cc2)S1` [Compound 71, (Z)-4-((2,4-dioxothiazolidin-5-ylidene)methyl)phenyl benzoate] gave an Increment % (A549 cells) of −58.38% and a PGE2 concentration (A549 cells) of 53.76 pg/mL.
`O=C1NC(=O)/C(=C/c2cccc(OC(=O)C3CCCCC3)c2Cl)S1` [Compound 81, (Z)-2-chloro-3-((2,4-dioxothiazolidin-5-ylidene)methyl)phenyl cyclohexanecarboxylate] gave an Increment % (A549 cells) of 10.32% and a PGE2 concentration (A549 cells) of 232.1268 pg/mL.
`O=C(CCC1CCCCC1)Oc1cccc(/C=C2\SC(=O)NC2=O)c1Cl` [Compound 83, (Z)-2-chloro-3-((2,4-dioxothiazolidin-5-ylidene)methyl)phenyl 3-cyclohexylpropanoate] was tested, and the Increment % (A549 cells) was 201.32% and the PGE2 concentration (A549 cells) was 634.0143 pg/mL.
With `O=C(CCC1CCCC1)Oc1ccc(/C=C2\SC(=O)NC2=O)c(Cl)c1` [Compound 95, (Z)-3-chloro-4-((2,4-dioxothiazolidin-5-ylidene)methyl)phenyl 3-cyclopentylpropanoate] the Increment % (A549 cells) was 113.4574% and the PGE2 concentration (A549 cells) was 238.3412 pg/mL.
Work on `O=C(CCC1CCCCC1)Oc1ccc(/C=C2\SC(=O)NC2=O)c(Cl)c1` [Compound 98, (Z)-3-chloro-4-((2,4-dioxothiazolidin-5-ylidene)methyl)phenyl 3-cyclohexylpropanoate] yielded an Increment % (A549 cells) of 138.7487% and a PGE2 concentration (A549 cells) of 266.5808 pg/mL.
In the case of `O=C(CCCC1CCCCC1)Oc1ccc(/C=C2\SC(=O)NC2=O)c(Cl)c1` [Compound 99, (Z)-3-chloro-4-((2,4-dioxothiazolidin-5-ylidene)methyl)phenyl 4-cyclohexylbutanoate], the Increment % (A549 cells) is reported as 66.7717% and the PGE2 concentration (A549 cells) is reported as 186.2131 pg/mL.
